Reference: ChEMBL document CHEMBL1152127, “Kinetic isotope effects in the oxidation of arachidonic acid by soybean lipoxygenase-1” (Bioorg Med Chem Lett, 2008)

Key:
Glycine max [1] = test: Activity of soybean lipoxygenase 1
Glycine max [2] = test: Activity of soybean lipoxygenase 1 assessed as rate of oxidation under diffusion-controlled reaction at 37 deg C
Glycine max [3] = test: Activity of soybean lipoxygenase 1 assessed as rate of oxidation under diffusion-controlled reaction at 20 deg C
Glycine max [4] = test: Activity of soybean lipoxygenase 1 assessed as rate of oxidation under diffusion-controlled reaction at 5 deg C

CCCCC/C=C\C/C=C\CCCCCCCC(=O)O
Km (Glycine max [1]): 39 µM

CCCCC/C=C\C/C=C\C/C=C\C/C=C\CCCC(=O)O
Km (Glycine max [1]): 15 µM
Activity (Glycine max [2]): 28%
Activity (Glycine max [3]): 56%
Activity (Glycine max [4]): 18%
